The test system of test [1] is Escherichia coli, ATCC 25922.
Source text: The antibacterial activity against two strains of bacteria of a previously published cHABP1 peptide,^65,66 an antimicrobial peptide designed through artificial intelligence methods (HHC-36),^67 and a chimeric peptide cHABP1-GGG-HHC36 to functionalize calcium phosphate surfaces with antibacterial activity.
For test [2], the system named is S. mutans (ATCC 25175). The following applies: in solution; previously published values; cited from earlier work.
In test [3] the test system is S. epidermidis (ATCC 29886). The following applies: in solution; previously published values; cited from earlier work.
For test [4], the system named is S. epidermidis (ATCC 29886). Put plainly: MIC in solution, OD600 over 24 h. The format is cell-based. On the set-up: key to Growth: Entries with a “+” indicate bacterial growth did occur at that concentration of TiBP-Spacer5-AMP; entries with a “−” indicate inhibition of bacterial growth. The conditions noted are these: for Growth: S. epidermidis. The method, then:
(§1) The antimicrobial activity of TiBP-Spacer5-AMP was evaluated against two bacterial strains, S. mutans (American Type Culture Collection (ATCC) 25175, Manassas, Va.) and S. epidermidis (ATCC 29886). S. mutans cultures were prepared using Brain Heart Infusion Broth (BHI, BD Difco, Franklin Lakes, N.J.) and S. epidermidis using Nutrient Broth (NB, BD Difco) according to ATCC protocols. Bacterial pellets obtained from ATCC were rehydrated in appropriate media of which several drops were used to streak either BHI or NB agar plates. Bacteria streaked agar plates were subsequently incubated for 24 h. Agar plates and cultures were incubated at 37° C. in the presence of 5% CO2-supplemented atmosphere for S. mutans and in aerobic atmosphere and 200 rpm shaking for S. epidermidis. Overnight cultures were made by aseptically transferring a single-colony forming unit (CFU) into 10 mL of appropriate broth media followed by incubation in appropriate conditions for 16 h. Bacteria from overnight cultures were used to inoculate fresh media and grown to mid-log phase.
(§2) The MIC of TiBP-Spacer5-AMP against S. mutans and S. epidermidis in solution was evaluated in 96 well plates (Corning Costar 3370, Corning, N.Y.) spectrophotometrically over a period of 24 h by obtaining a measurement for the optical density at 600 nm (OD600) every two hours. Optical density at 600 nm was measured using a Cytation3 microplate reader (Bio Tek Instruments, Winooski, Vt.). Bacteria grown to mid-log phase at a density of 10^7 CFU/mL were cultured at appropriate growth conditions in appropriate broth media only as a control or in broth media containing a range from 5-70 μM of TiBP-Spacer5-AMP for S. mutans and 1-10 μM for S. epidermidis. The OD600 measurements obtained, relating optical density to bacteria CFUs/mL, were plotted versus time to generate standard growth curves. The minimum concentration of TiBP-Spacer5-AMP at which no increase in optical density measurement, corresponding to no bacterial growth occurring was designated as the MIC. AlamarBlue assay (Invitrogen, Carlsbad, Calif.) was used for determination of a minimum bactericidal concentration of TiBP-Spacer5-AMP. Bacteria in broth media only and with the TiBPSpacer5-AMP concentrations described in the MIC experiments were prepared in 96 well plates. AlamarBlue reagent was added to experimental wells and incubated for two hours at 37° C. Experimental wells were observed and evaluated for color change. Wells corresponding to concentrations of TiBP-Spacer5-AMP where no color change occurred were determined to have bactericidal concentrations of the chimeric peptide.

For test [5], the system named is S. mutans (ATCC 25175). The test can be described thus: MIC in solution, OD600 over 24 h. The format is cell-based. On the set-up: key to Growth: Entries with a “+” indicate bacterial growth did occur at that concentration of TiBP-Spacer5-AMP; entries with a “−” indicate inhibition of bacterial growth. The conditions noted are these: for Growth: S. mutans. As for the experimental part:
as §1, §2

For test [6], the system named is S. epidermidis (ATCC 29886). The test can be described thus: AlamarBlue assay, minimum bactericidal concentration. The format is cell-based. The method, then:
as §1
(§3) The MIC of TiBP-Spacer5-AMP against S. mutans and S. epidermidis in solution was evaluated in 96 well plates (Corning Costar 3370, Corning, N.Y.) spectrophotometrically over a period of 24 h by obtaining a measurement for the optical density at 600 nm (OD600) every two hours. […]

The subject of test [7] is S. mutans (ATCC 25175). Described as above. Format: cell-based. The method, then: as §1, §3
For a further test, the system named is S. epidermidis. The test can be described thus: Antimicrobial activity on bio-coated titanium substrates, fluorescence imaging and ImageJ. The format is cell-based. The text has this: Two surfaces, 99% pure titanium foil (Alfa Aesar 43677, Ward Hill, Mass.) and titanium implant discs cut from standard rods used in posterior lumbar surgery (University of Kansas Medical Center Department of Neurosurgery, Kansas City, Kans.) were used for evaluation of TiBP-Spacer5-AMP biocoating antimicrobial activity. Titanium foils were cut into squares measuring 0.5 mm thick×1 cm×1 cm and 6 mm diameter implant rods were cut by the University of Kansas Medical Center Department of Neurosurgery with a standard orthopedic surgical rod cutter into 3 mm long disc segments. […]
Antimicrobial activity of TiBP-Spacer5-AMP biocoated titanium surfaces against each bacterial strain was evaluated by culturing bacteria in 24 well plates containing bio-coated surfaces or bare, untreated control surfaces. […] Stained bacteria were imaged with a fluorescence microscope (Olympus Spin Disk Epifluorescent microscope, Richmond Hill, Ontario, Canada) at an excitation/emission wave number provided by the manufacturer. Five representative fluorescence images were taken for each sample (n=3) and the bacteria were quantified using ImageJ Software and then subjected to statistical analysis.

The test system of the next test is NIH/3T3 fibroblast. Put plainly: Host cell attachment and spreading on coated titanium surfaces. Format: cell-based. The conditions noted are these: 60 μM bio-coating. The method, then:
Host cell response was evaluated with a fibroblast cell line (NIH/3T3 ATCC CRL-1658). The fibroblast cells were cultured following the ATCC protocol. Briefly, cells were grown in DMEM media (Gibco 11995073, Carlsbad, Calif.) supplemented with 10% fetal bovine serum (Gibco 10437036) and 1% penicillin-streptomycin (Gibco 15070063) and incubated at 37° C. in a 5% CO2 atmosphere. Fibroblasts were passaged using 0.25% TrypsinEDTA (Gibco 25200072) and cells were counted to ensure correct seeding concentrations. Fibroblast cell response to 60 μM TiBP-Spacer5AMP bio-coating, 200 μg/mL collagen (Sigma C7661, St. Louis, Mo.) coating (positive control) and bare, untreated (negative control) titanium foil and implant surfaces was studied. Fibroblast cells at a concentration of 8×10^5 cells/mL were added to sterile 24 well plates containing TiBP-Spacer5-AMP coated, collagen coated, or bare, untreated foils or implants and incubated for 24 h at 37° C. in a 5% CO2 atmosphere. Fibroblast attachment and spreading were evaluated by fixing fibroblasts on titanium surfaces with 2% glutaraldehyde solution, followed by dehydration in 10%, 30%, 60%, 90% and 100% ethanol. Fixed fibroblasts on titanium surfaces were washed twice with PBS, permeabilized with TritonX (Sigma T8787), sealed with BSA (Fisher BioReagents BP671-10, Carlsbad, Calif.), and stained with Alexa Fluor488-Phalloidin dye (Invitrogen). Unbound dye was removed by washing with PBS and substrates were imaged with a fluorescent microscope at 4, 10 and 20 times magnification. Five representative images of each surface (n=3) were obtained and analyzed with ImageJ Software and then subjected to statistical analysis. Cell attachment was determined as number of cells per square millimeter and the percentage of the image surface covered by attached cells. Another measure of viability, metabolic activity was determined using a MTT (3-(4,5-dimethylthiazol-2-yl)-25-diphenyltetrazolium bromide) assay (Sigma M5655). […] Absorbance was measured at 570 nm.

“Also recorded” adds a separate entry of the source. Like-named read-outs stand apart in the source and are kept apart here. Ends that are not written are not given here. Peptide text beside a SMILES is read from it.

With “KRWWKWWRR [HHC-36, KRWWKWWRR (SEQ ID NO: 37)]”, the “S. mutans IC50” value with S. mutans came out at 3 µg/mL. Besides, the MIC value with S. mutans (S. mutans) amounted to 10.8 µM. The “E. coli IC50” value in test [1] worked out at 12 µg/mL. Besides, in test [1] (Escherichia coli, ATCC 25922), the MIC estimate was 21.5 µM.
In the case of “RPRENRGRERGL-GGG-LKLLKKLLKLLKKL (SEQ ID NO: 9) (RPRENRGRERGLGGGLKLLKKLLKLLKKL) [TiBP-Spacer3-AMP, comparative chimeric peptide with shorter spacer]”, in the test on S. mutans (ATCC 25175) [2], the “Minimum Inhibitory Concentration (MIC) S. mutans” value is 153 µM. Moreover, the “Minimum Inhibitory Concentration (MIC) S. epidermidis” value in test [3] is 5 µM.
“LKLLKKLLKLLKKL (SEQ ID NO: 8) [AMP, antimicrobial peptide]”: the “Minimum Inhibitory Concentration (MIC) S. mutans” value with S. mutans (ATCC 25175) [2] was 38 µM. Besides, the “Minimum Inhibitory Concentration (MIC) S. epidermidis” value in test [3] was 4 µM.
As to `CSCC[C@H](NC(=O)[C@@H](N)CS)C(=O)N[C@@H](CC(C)C)C(=O)N1CCC[C@H]1C(=O)N[C@@H](Cc1c[nH]cn1)C(=O)N[C@@H](Cc1c[nH]cn1)C(=O)NCC(=O)N[C@@H](C)C(=O)N[C@@H](CS)C(=O)O` [cHABP1, CMLPHHGAC (SEQ ID NO: 36)] (H-CMLPHHGAC-OH; N-terminus and C-terminus assumed), the “antibacterial activity by absorbance at 600 nm (FIG. 11)” value (with S. mutans (S. mutans); in test [1] (E. coli)) was “some antibacterial activity in the higher tested concentrations” each time.
Regarding “RPRENRGRERGLGSGGGLKLLKKLLKLLKKL [TiBP-Spacer5-AMP, RPRENRGRERGL-GSGGG-LKLLKKLLKLLKKL (SEQ ID NO: 10)]”, the Growth entry in [4] (1 μM), in test [4] (2 μM), in test [4] (3 μM), in test [4] (4 μM), in test [4] (5 μM) and in [4] (6 μM) was “+” each time. In addition, the Growth entry was “+” in [4] (7 μM); “−” in [4] (8 μM); “+” in the test on S. mutans (ATCC 25175) [5] (5 μM); “+” in the test with S. mutans (ATCC 25175) [5] (10 μM); “+” with S. mutans (ATCC 25175) [5] (20 μM); “+” in the test with S. mutans (ATCC 25175) [5] (30 μM). In addition, the Growth result in the test with S. mutans (ATCC 25175) [5] (40 μM) is “+”; in the test on S. mutans (ATCC 25175) [5] (50 μM), “−”; in the test with S. mutans (ATCC 25175) [5] (60 μM) it was “−”; in the test on S. mutans (ATCC 25175) [5] (70 μM), “−”. The “Minimum Inhibitory Concentration (MIC) S. epidermidis” value in [4] (in solution) amounted to 8 µM. Also, the “improvement (decrease) of MIC against S. mutans” value in the test with S. mutans (ATCC 25175) [5] (compared to TiBP-Spacer3-AMP) was “three-fold”. Besides, the “Minimum Inhibitory Concentration (MIC) S. mutans” value in the test with S. mutans (ATCC 25175) [5] (in solution) was determined as 50 µM. Also, the bactericidal concentration stood at 10 µM in test [6] and 60 µM in the test with S. mutans (ATCC 25175) [7]. For the same molecule, in the test on S. epidermidis (implant discs coated at 10 μM), the “Fold Improvement Compared to Uncoated Ti Surfaces, Implants” value was found to be 48 fold. The “Fold Improvement Compared to Uncoated Ti Surfaces, Foils” value in the test with S. epidermidis (titanium foil coated at 10 μM) is reported as 33 fold. Also, the “fibroblast surface coverage (spreading)” value with NIH/3T3 fibroblast (titanium foils, compared to untreated control) is reported as “greater coverage”. Further, in the test with NIH/3T3 fibroblast (titanium implants, compared to collagen positive control), the adhesion and spreading entry is recorded as “statistically comparable to the positive collagen controls”. Besides, the “cell attachment and spreading” value in the test on NIH/3T3 fibroblast (titanium implants, compared to untreated control) was “greater cell attachment and spreading compared to untreated controls; also recorded: statistically greater cell attachment and spreading properties”.

Values taken from patent US11492382B2, “Chimeric peptides with an antimicrobial domain and an inorganic binding domain” (priority 2017, dated 2022).
